Experiments:
[1] = system: Staphylococcus aureus; assay: Antibiofilm activity against methicillin-resistant Staphylococcus aureus assessed as inhibition of biofilm formation at 50 ug/ml; assay type: functional
[2] = system: Staphylococcus aureus; assay: Antibiofilm activity against methicillin-resistant Staphylococcus aureus 1094 assessed as inhibition of biofilm formation at 50 ug/ml; assay type: functional
[3] = system: Staphylococcus epidermidis; assay: Antibiofilm activity against Staphylococcus epidermidis 1457 assessed as inhibition of biofilm formation at 50 ug/ml; assay type: functional
[4] = system: Staphylococcus epidermidis; assay: Antibacterial activity against Staphylococcus epidermidis 1457 assessed as planktonic growth at 50 ug/ml; assay type: organism-based
[5] = system: Staphylococcus epidermidis; assay: Antibiofilm activity against Staphylococcus epidermidis GTC 18972 assessed as inhibition of biofilm formation at 50 ug/ml; assay type: functional
[6] = system: Staphylococcus aureus; assay: Antibiofilm activity against Staphylococcus aureus ATCC 35556 assessed as inhibition of biofilm formation at 50 ug/ml; assay type: functional
[7] = system: Staphylococcus aureus; assay: Antibacterial activity against methicillin-resistant Staphylococcus aureus assessed as planktonic growth at 50 ug/ml; assay type: organism-based; conditions: in vitro
[8] = system: Staphylococcus aureus; assay: Antibacterial activity against methicillin-resistant Staphylococcus aureus 1094 assessed as planktonic growth at 50 ug/ml; assay type: organism-based
[9] = system: Pseudomonas aeruginosa; assay: Antibiofilm activity against Pseudomonas aeruginosa PAO1 assessed as inhibition of biofilm formation at 50 ug/ml; assay type: functional
[10] = system: Pseudomonas aeruginosa; assay: Antibacterial activity against Pseudomonas aeruginosa PAO1 assessed as planktonic growth at 50 ug/ml; assay type: organism-based
[11] = system: Staphylococcus epidermidis; assay: Antibacterial activity against Staphylococcus epidermidis GTC 18972 assessed as planktonic growth at 50 ug/ml; assay type: organism-based
[12] = system: Staphylococcus aureus; assay: Antibacterial activity against Staphylococcus aureus ATCC 35556 assessed as planktonic growth at 50 ug/ml; assay type: organism-based
[13] = system: Pseudomonas aeruginosa; assay: Antibiofilm activity against Pseudomonas aeruginosa PAO1 assessed as inhibition of biofilm formation; assay type: functional, organism-based; conditions: Pseudomonas aeruginosa, PAO1

SMILES | inhibition at 50 µg/mL [1] | inhibition at 50 µg/mL [2] | inhibition at 50 µg/mL [3] | Activity [4] | inhibition at 50 µg/mL [5] | inhibition at 50 µg/mL [6] | Activity [7] | Activity [8] | inhibition at 50 µg/mL [9] | Activity [10] | Activity [11] | Activity [12] | IC50 [13]
O=C(NCC(=O)c1cnc2ncccn12)c1cc(Br)c(Br)[nH]1 | -119% | -13.9% | 6.17% | 13.8% | -2.59% | -5.8% | 7.17% | 18.43% | 20.8% | -15.25% | 19.25% | -4.3% | –
O=C(NCC(O)c1cnc2ncccn12)c1cc(Br)c(Br)[nH]1 (stereo unspecified) | -124% | 0.13% | 4.48% | 9.93% | -9.35% | -4.41% | -1.91% | 6.37% | 8.66% | -13.02% | 15.9% | -6.51% | –
Cl.Cl.NCC(=O)c1cnc2ncccn12 | 4.3% | -30.2% | 0.9% | -0.6% | 28.7% | -5.1% | 7.8% | 2% | 5.6% | 28.8% | 6.4% | 6.2% | –
O=C(NC/C=C/c1cnc2ncccn12)c1cc(Br)c[nH]1 | -108% | 36% | 14% | -24% | -1.8% | -5.5% | -16.4% | -8.7% | 2.1% | -19.9% | -3.1% | 8.6% | –
O=C(NCC(=O)c1cnc2ncccn12)c1ccc[nH]1 | -119% | 2.15% | 7.6% | 11.5% | -6.61% | -5.94% | 3.76% | 20.67% | 14.3% | 3.14% | 17.02% | -4.75% | –
O=C(NCCC(=O)c1cnc2ncccn12)c1cc(Br)c(Br)[nH]1 | -124% | 0.13% | 4.48% | 9.93% | -9.35% | -4.41% | -1.91% | 6.37% | 8.66% | -13.02% | 15.9% | -6.51% | –
O=C(NCC(=O)c1cnc2ncccn12)c1cc(Br)c[nH]1 | -124% | 7.07% | 7.83% | 13.47% | -9.93% | -8.17% | -6.08% | 16.74% | 27.4% | -6.55% | 19.25% | -3.86% | –
O=C(NCC(O)c1cnc2ncccn12)c1cc(Br)c[nH]1 (stereo unspecified) | -127% | 22.5% | 2.71% | -2.26% | -9.3% | -8.17% | -6.08% | 5.81% | 17% | -14.84% | 1.02% | 4.97% | –
O=C(NC/C=C/c1cnc2ncccn12)c1ccc[nH]1 | -61% | 47.8% | 22.8% | -8.9% | 45.9% | 16.4% | 5% | -0.8% | -2.9% | 14.6% | 0.1% | -11.5% | –
O=C(NCCC(O)c1cnc2ncccn12)c1cc(Br)c[nH]1 (stereo unspecified) | 8% | 34.3% | 2.6% | 2.9% | -14.1% | 2.2% | 15.4% | 17.3% | 1.9% | 17.1% | 6.5% | 4.7% | –
O=C(NCCC(=O)c1cnc2ncccn12)c1cc(Br)c[nH]1 | -127% | 22.5% | 2.71% | -2.26% | -9.3% | -8.17% | -6.08% | 5.81% | 17% | -14.84% | 1.02% | 4.97% | –
O=C(NCCC(O)c1cnc2ncccn12)c1cc(Br)c(Br)[nH]1 (stereo unspecified) | -20.9% | 26.2% | 19.6% | 10.2% | -33.1% | -2.2% | -5.1% | -0.8% | -1.4% | 14.1% | 14.8% | 2.9% | –
O=C(CN1C(=O)c2ccccc2C1=O)c1cnc2ncccn12 | -97.9% | -67.5% | 6.4% | 11.1% | 8.1% | -3.15% | 3.76% | 21.51% | -7.64% | -0.69% | 29.67% | -6.07% | –
Cl.Cl.NCCC(=O)c1cnc2ncccn12 | -10.6% | -1.8% | 33% | 3.5% | 4.2% | 57.1% | -12.6% | -0.9% | -1.5% | 11.1% | 5.5% | -3.3% | –
O=C(NCCC(O)c1cnc2ncccn12)c1ccc[nH]1 (stereo unspecified) | -5.1% | 26.8% | 9.6% | 0.7% | 18.1% | -6.5% | 6.1% | -7.9% | 3.9% | -19.1% | 1% | 3.3% | –
O=C(CCN1C(=O)c2ccccc2C1=O)c1cnc2ncccn12 | 18.7% | -53.2% | 10.6% | 15.13% | -11% | 6.92% | 10.43% | 15.94% | 23% | -16.12% | 23.58% | 2.31% | –
Nc1nc(C(=O)CCNC(=O)c2cc(Br)c(Br)[nH]2)c[nH]1 | 28.3% | -66% | 17.8% | -13.68% | 33.8% | -0.94% | 1.56% | 21.91% | 4.13% | 6.46% | 9.62% | -4.22% | 60 µM
O=C(NCCC(=O)c1cnc2ncccn12)c1ccc[nH]1 | 16.9% | -25.1% | 1.26% | -3.27% | -16.7% | -1.6% | 0.95% | 10.52% | 13.2% | -15.89% | 11.45% | 6.67% | –
O=C(NC/C=C/c1cnc2ncccn12)c1cc(Br)c(Br)[nH]1 | -9.7% | 38.9% | 18.3% | 7.8% | -16.6% | -0.4% | -6.1% | -0.5% | -1.7% | 11.6% | 9.1% | 3.3% | –
O=C(NCC(O)c1cnc2ncccn12)c1ccc[nH]1 (stereo unspecified) | 16.9% | -25.1% | -1.26% | -3.27% | -16.8% | -1.6% | 0.95% | 10.52% | 13.2% | -15.89% | 11.45% | 6.67% | –

— ChEMBL document CHEMBL3132815, “Design, synthesis and activities of 4/5-acyl-2-aminoimidazolyl analogues of oroidin for biofilm inhibition” (Medchemcomm, 2013)
